Source: patent US12318403B2, “2′3′-cyclic dinucleotides and prodrugs thereof” (INSTITUTE OF ORGANIC CHEMISTRY AND BIOCHEMISTRY ASCR, V.V.I., priority 2019, dated 2025)
Where two headings read alike, the source gives them in different places. Each block holds one compound with its values, some of them ahead of it.

How the values were obtained:
[1] = test system: peripheral blood mononuclear cell (PBMC); experiment: Peripheral blood mononuclear cell assay; conditions: average of one to four donors
[2] = target: human wild type STING (WT STING) (Homo sapiens, UniProt Q86WV6, H232R); experiment: 293T WT STING standard reporter assay; format: cell-based; conditions: standard reporter assay without digitonin, 7 hours, ISRE firefly luciferase
[3] = PBMC, read-out: PBMC EC50 IFN-γ, compounds 1h, washed, 15 hour incubation, interferon-gamma level in medium
[4] = read-out: PBMC EC50 IFN-α, compounds 1h, washed, 15 hour incubation, interferon-alpha level in medium
[5] = read-out: PBMC EC50 TNF-α, compounds 1h, washed, 15 hour incubation, tumor necrosis factor-alpha level in medium
[6] = 293T wtSTING-FL cells, read-out: 293T WT STING EC50
[7] = 293T WT STING EC50, 293T wtSTING-FL cells
[8] = PBMC, read-out: PBMC EC50 IFN-α, compounds 1h, washed, 15 hour incubation, interferon-alpha level in medium
[9] = PBMC, read-out: PBMC EC50 TNF-α, compounds 1h, washed, 15 hour incubation, tumor necrosis factor-alpha level in medium
[10] = read-out: PBMC EC50 IFN-γ, compounds 1h, washed, 15 hour incubation, interferon-gamma level in medium

Sequence of human wild type STING (WT STING) (Q86WV6 whole entry H232R): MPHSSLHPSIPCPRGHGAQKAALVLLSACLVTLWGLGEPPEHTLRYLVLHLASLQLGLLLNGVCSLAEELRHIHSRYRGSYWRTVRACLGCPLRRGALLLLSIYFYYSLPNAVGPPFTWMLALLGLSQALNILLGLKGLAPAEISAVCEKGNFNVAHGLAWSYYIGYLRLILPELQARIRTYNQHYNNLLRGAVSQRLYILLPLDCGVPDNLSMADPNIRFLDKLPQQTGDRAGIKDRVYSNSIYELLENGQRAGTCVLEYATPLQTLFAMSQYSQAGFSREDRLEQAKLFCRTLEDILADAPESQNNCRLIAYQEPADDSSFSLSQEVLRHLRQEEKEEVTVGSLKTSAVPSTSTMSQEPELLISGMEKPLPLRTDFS

EC50 [2, 6]: 0.6 µM
SMILES: CC(C)(C)C(=O)OCOP1(=O)CO[C@H]2[C@@H](F)[C@H](n3cnc4c(N)ncnc43)O[C@@H]2COP(=O)(OCOC(=O)C(C)(C)C)O[C@@H]2[C@H](F)[C@@H](CO1)O[C@H]2n1cnc2c(=O)[nH]cnc21 (single isomer, unassigned) [Compound 77a]
EC50 [1, 3]: 1.7 µM
EC50 [1, 4]: 2.8 µM
EC50 [1, 5]: 1.4 µM

SMILES: CCCCCCCCCCCC(=O)OCSP1(=O)CO[C@H]2[C@@H](F)[C@H](n3cnc4c(N)ncnc43)O[C@@H]2COP(=O)(SCOC(=O)CCCCCCCCCCC)O[C@@H]2[C@H](F)[C@@H](CO1)O[C@H]2n1cnc2c(=O)[nH]c(N)nc21 (single isomer, unassigned) [Compound 78d]
EC50 [1, 4]: 3.4 µM
EC50 [1, 5]: 0.8 µM
EC50 [2, 7]: 0.04 µM

SMILES: CC(C)(C)C(=O)OCSP1(=O)CO[C@H]2[C@@H](F)[C@H](n3cnc4c(N)ncnc43)O[C@@H]2COP(=O)(SCOC(=O)C(C)(C)C)O[C@@H]2[C@H](F)[C@@H](CO1)O[C@H]2n1cnc2c(=O)[nH]c(N)nc21 (single isomer, unassigned) [Compound 55c]
EC50 [1, 8]: 10 µM
EC50 [1, 3]: 3.7 µM
EC50 [1, 9]: 7 µM
EC50 [2, 7]: 0.65 µM

EC50 [2, 6]: 0.003 µM
SMILES: CCCCCCCCCCCC(=O)OCOP1(=O)CO[C@H]2[C@@H](F)[C@H](n3cnc4c(N)ncnc43)O[C@@H]2COP(=O)(OCOC(=O)CCCCCCCCCCC)O[C@@H]2[C@H](F)[C@@H](CO1)O[C@H]2n1cnc2c(=O)[nH]cnc21 (single isomer, unassigned) [Compound 79a]
EC50 [1, 8]: 0.2 µM
EC50 [1, 10]: 0.1 µM

SMILES: CC(C)(C)C(=O)OCSP1(=O)CO[C@H]2[C@@H](F)[C@H](n3cnc4c(N)ncnc43)O[C@@H]2COP(=O)(SCOC(=O)C(C)(C)C)O[C@@H]2[C@H](F)[C@@H](CO1)O[C@H]2n1cnc2c(=O)[nH]c(N)nc21 (single isomer, unassigned) [Compound 55d]
EC50 [2, 7]: 0.3 µM

EC50 [2, 6]: 0.9 µM
SMILES: CC(C)OC(=O)OCOP1(=O)CO[C@H]2[C@@H](F)[C@H](n3cnc4c(N)ncnc43)O[C@@H]2COP(=O)(OCOC(=O)OC(C)C)O[C@@H]2[C@H](F)[C@@H](CO1)O[C@H]2n1cnc2c(N)ncnc21 (stereo partly drawn) [Compound 80b, {[(1S,6R,8R,9R,10R,16R,18R,19R)-8,18-bis(6-amino-9H-purin-9-yl)-9,19-difluoro-3,13-dioxo-13-({[(propan-2-yloxy)carbonyl]oxy}methoxy)-2,4,7,11,14,17-hexaoxa-3λ^5,13λ^5-diphosphatricyclo[14.2.1.0^6,10]nonadecan-3-yl]oxy}methyl propan-2-yl carbonate]
EC50 [1, 8]: 1.3 µM
EC50 [1, 3]: 1.6 µM
EC50 [1, 9]: 1.5 µM

SMILES: CSP1(=O)CO[C@H]2[C@@H](F)[C@H](n3cnc4c(N)ncnc43)O[C@@H]2COP(=O)(SC)O[C@@H]2[C@H](F)[C@@H](CO1)O[C@H]2n1cnc2c(=O)[nH]c(N)nc21 (stereo partly drawn) [Compound 52c, (1S,6R,8R,9R,10R,16R,18R,19R)-18-(2-amino-6-oxo-6,9-dihydro-1H-purin-9-yl)-8-(6-amino-9H-purin-9-yl)-9,19-difluoro-3,13-bis(methylsulfanyl)-2,4,7,11,14,17-hexaoxa-3λ^5,13λ^5-diphosphatricyclo[14.2.1.0^6,10]nonadecane-3,13-dione]
EC50 [2, 7]: > 20 µM

EC50 [2, 6]: 0.2 µM
SMILES: CC(C)(C)C(=O)OCOP1(=O)CO[C@H]2[C@@H](F)[C@H](n3cnc4c(N)ncnc43)O[C@@H]2COP(=O)(OCOC(=O)C(C)(C)C)O[C@@H]2[C@H](F)[C@@H](CO1)O[C@H]2n1cnc2c(=O)[nH]cnc21 (single isomer, unassigned) [Compound 77c]
EC50 [1, 4]: 0.7 µM
EC50 [1, 10]: 2.3 µM
EC50 [1, 5]: 3.7 µM

EC50 [2, 6]: 0.003 µM
SMILES: CCCCCCCCCCCC(=O)OCOP1(=O)CO[C@H]2[C@@H](F)[C@H](n3cnc4c(N)ncnc43)O[C@@H]2COP(=O)(OCOC(=O)CCCCCCCCCCC)O[C@@H]2[C@H](F)[C@@H](CO1)O[C@H]2n1cnc2c(=O)[nH]cnc21 (single isomer, unassigned) [Compound 79c]
EC50 [1, 4]: 0.1 µM
EC50 [1, 10]: 0.05 µM
EC50 [1, 5]: 0.09 µM

SMILES: CCCC(=O)Oc1ccc(CSP2(=O)CO[C@H]3[C@@H](F)[C@H](n4cnc5c(N)ncnc54)O[C@@H]3COP(=O)(O)O[C@@H]3[C@H](F)[C@@H](CO2)O[C@H]3n2cnc3c(=O)[nH]c(N)nc32)cc1 (single isomer, unassigned) [Compound 48a]
EC50 [2, 7]: 5.6 µM

SMILES: CCCCCCCC(=O)Oc1ccc(CSP2(=O)CO[C@H]3[C@@H](F)[C@H](n4cnc5c(N)ncnc54)O[C@@H]3COP(=O)(O)O[C@@H]3[C@H](F)[C@@H](CO2)O[C@H]3n2cnc3c(=O)[nH]c(N)nc32)cc1 (single isomer, unassigned) [Compound 45a]
EC50 [2, 7]: 0.3 µM

EC50 [2, 6]: 8.1 µM
SMILES: Nc1ncnc2c1ncn2[C@@H]1O[C@@H]2COP(=O)(O)O[C@@H]3[C@H](F)[C@@H](COP(=O)(O)CO[C@H]2[C@H]1F)O[C@H]3n1cnc2c(=O)[nH]cnc21 [Compound 22]
EC50 [1, 8]: 160 µM
EC50 [1, 3]: 125 µM
EC50 [1, 9]: 90 µM

SMILES: CCCCCCCCCC(=O)Oc1ccc(CSP2(=O)CO[C@H]3[C@@H](F)[C@H](n4cnc5c(N)ncnc54)O[C@@H]3COP(=O)(O)O[C@@H]3[C@H](F)[C@@H](CO2)O[C@H]3n2cnc3c(=O)[nH]c(N)nc32)cc1 (single isomer, unassigned) [Compound 46a]
EC50 [2, 7]: 0.06 µM

SMILES: CC(C)(C)C(=O)OCSP1(=O)CO[C@H]2[C@@H](F)[C@H](n3cnc4c(N)ncnc43)O[C@@H]2COP(=O)(O)O[C@@H]2[C@H](F)[C@@H](CO1)O[C@H]2n1cnc2c(=O)[nH]c(N)nc21 (single isomer, unassigned) [Compound 41b]
EC50 [2, 7]: 87.8 µM

SMILES: CCCCCCCCCC(=O)Oc1ccc(CSP2(=O)CO[C@H]3[C@@H](F)[C@H](n4cnc5c(N)ncnc54)O[C@@H]3COP(=O)(O)O[C@@H]3[C@H](F)[C@@H](CO2)O[C@H]3n2cnc3c(=O)[nH]c(N)nc32)cc1 (single isomer, unassigned) [Compound 46b]
EC50 ([2]; read-out: 293T WT STING EC50, 293T wtSTING-FL cells): 0.06 µM

SMILES: CCCCCCCCCCCC(=O)OCSP1(=O)CO[C@H]2[C@@H](F)[C@H](n3cnc4c(N)ncnc43)O[C@@H]2COP(=O)(SCOC(=O)CCCCCCCCCCC)O[C@@H]2[C@H](F)[C@@H](CO1)O[C@H]2n1cnc2c(=O)[nH]c(N)nc21 (single isomer, unassigned) [Compound 78c]
EC50 [1, 8]: 3.4 µM
EC50 [1, 5]: 3 µM
EC50 [2, 7]: 0.06 µM

EC50 [2, 6]: 4.2 µM
SMILES: CC(C)OC(=O)OCOP1(=O)CO[C@H]2[C@@H](F)[C@H](n3cnc4c(N)ncnc43)O[C@@H]2COP(=O)(OCOC(=O)OC(C)C)O[C@@H]2[C@H](F)[C@@H](CO1)O[C@H]2n1cnc2c(N)ncnc21 (single isomer, unassigned) [Compound 80a]
EC50 [1, 8]: > 5 µM
EC50 [1, 3]: > 5 µM
EC50 [1, 9]: > 5 µM

SMILES: CCCC(=O)Oc1ccc(CSP2(=O)CO[C@H]3[C@@H](F)[C@H](n4cnc5c(N)ncnc54)O[C@@H]3COP(=O)(O)O[C@@H]3[C@H](F)[C@@H](CO2)O[C@H]3n2cnc3c(=O)[nH]c(N)nc32)cc1 (single isomer, unassigned) [Compound 48b]
EC50 [2, 7]: 3.4 µM

SMILES: CC(C)(C)C(=O)Oc1ccc(CSP2(=O)CO[C@H]3[C@@H](F)[C@H](n4cnc5c(N)ncnc54)O[C@@H]3COP(=O)(O)O[C@@H]3[C@H](F)[C@@H](CO2)O[C@H]3n2cnc3c(=O)[nH]c(N)nc32)cc1 (single isomer, unassigned) [Compound 43a]
EC50 [2, 7]: 1.2 µM

SMILES: CC(C)(C)C(=O)OCOc1ccc(CSP2(=O)CO[C@H]3[C@@H](F)[C@H](n4cnc5c(N)ncnc54)O[C@@H]3COP(=O)(O)O[C@@H]3[C@H](F)[C@@H](CO2)O[C@H]3n2cnc3c(=O)[nH]c(N)nc32)cc1 (single isomer, unassigned) [Compound 44b]
EC50 [2, 7]: 0.5 µM

SMILES: CCCCCCCCCCCC(=O)OCSP1(=O)CO[C@H]2[C@@H](F)[C@H](n3cnc4c(N)ncnc43)O[C@@H]2COP(=O)(O)O[C@@H]2[C@H](F)[C@@H](CO1)O[C@H]2n1cnc2c(=O)[nH]c(N)nc21 (single isomer, unassigned) [Compound 76b]
EC50 [2, 7]: 0.03 µM

EC50 [2, 6]: 0.14 µM
SMILES: CC(C)(C)C(=O)OCOP1(=O)CO[C@H]2[C@@H](F)[C@H](n3cnc4c(N)ncnc43)O[C@@H]2COP(=O)(OCOC(=O)C(C)(C)C)O[C@@H]2[C@H](F)[C@@H](CO1)O[C@H]2n1cnc2c(N)ncnc21 (single isomer, unassigned) [Compound 81c]

SMILES: CC(C)(C)C(=O)Oc1ccc(CSP2(=O)CO[C@H]3[C@@H](F)[C@H](n4cnc5c(N)ncnc54)O[C@@H]3COP(=O)(O)O[C@@H]3[C@H](F)[C@@H](CO2)O[C@H]3n2cnc3c(=O)[nH]c(N)nc32)cc1 (single isomer, unassigned) [Compound 43b]
EC50 [2, 7]: 3.1 µM

SMILES: CCCCCC(=O)Oc1ccc(C(=O)Oc2ccc(CSP3(=O)CO[C@H]4[C@@H](F)[C@H](n5cnc6c(N)ncnc65)O[C@@H]4COP(=O)(O)O[C@@H]4[C@H](F)[C@@H](CO3)O[C@H]4n3cnc4c(=O)[nH]c(N)nc43)cc2)cc1 (single isomer, unassigned) [Compound 49a]
EC50 [2, 7]: 1.8 µM

SMILES: CC(C)(C)C(=O)OCSP1(=O)CO[C@H]2[C@@H](F)[C@H](n3cnc4c(N)ncnc43)O[C@@H]2COP(=O)(O)O[C@@H]2[C@H](F)[C@@H](CO1)O[C@H]2n1cnc2c(=O)[nH]c(N)nc21 (single isomer, unassigned) [Compound 41a]
EC50 [2, 7]: 10.4 µM

SMILES: CCCCCCCC(=O)Oc1ccc(CSP2(=O)CO[C@H]3[C@@H](F)[C@H](n4cnc5c(N)ncnc54)O[C@@H]3COP(=O)(O)O[C@@H]3[C@H](F)[C@@H](CO2)O[C@H]3n2cnc3c(=O)[nH]c(N)nc32)cc1 (single isomer, unassigned) [Compound 45b]
EC50 [2, 7]: 0.15 µM
